Source: paper PMC7932537, “Quantitative profiling of protease specificity” (PLoS Computational Biology, 2021)

Columns and labels:
[1] = target: MMP-9 (Homo sapiens, UniProt P14780); experiment: K(obs) of individual phage substrates (set of 1369); format: biochemical; conditions: MMP9
[2] = target: T1, MMP-2 (Homo sapiens, UniProt P08253); experiment: as above; format: biochemical; conditions: MMP2
T1 sequence (P08253 110-660): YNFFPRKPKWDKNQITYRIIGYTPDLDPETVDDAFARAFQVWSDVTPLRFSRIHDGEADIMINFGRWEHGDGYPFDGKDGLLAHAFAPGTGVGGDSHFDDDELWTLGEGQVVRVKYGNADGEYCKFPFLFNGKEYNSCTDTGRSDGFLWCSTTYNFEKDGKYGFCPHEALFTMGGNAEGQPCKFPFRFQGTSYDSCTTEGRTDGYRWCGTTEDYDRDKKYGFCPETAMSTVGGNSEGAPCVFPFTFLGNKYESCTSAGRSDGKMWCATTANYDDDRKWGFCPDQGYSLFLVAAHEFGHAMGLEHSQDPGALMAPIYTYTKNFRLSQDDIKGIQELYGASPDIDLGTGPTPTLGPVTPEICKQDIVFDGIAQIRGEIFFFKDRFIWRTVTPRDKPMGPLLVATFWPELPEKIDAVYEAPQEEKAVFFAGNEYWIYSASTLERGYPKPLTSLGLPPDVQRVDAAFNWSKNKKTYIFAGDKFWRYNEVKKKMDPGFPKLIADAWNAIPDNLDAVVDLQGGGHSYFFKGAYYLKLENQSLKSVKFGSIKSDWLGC

[3] = tested on: MMP-2; experiment: Substrate phage display with NGS: relative probability (RP) of P3-P1' tetramer clusters; format: biochemical, human; conditions: MMP2;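 further: ratio of tetramer probability after protease selection to that in naive phage library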
[4] = individual phage substrate of the set of 1369 peptides, dash in the sequence marks the cleavage position
[5] = individual phage substrate of the set of 1369 peptides, cleavage position marked by '-'
[6] = RP of the P3-P1' tetramer contained in the substrate
[7] = individual phage substrates, set of 1369 peptides, hyphen in sequence marks cleavage position
[8] = individual phage substrates, set of 1369 peptides, cleavage position marked by hyphen in sequence
[9] = RP of the P3-P1' tetramer contained in the substrate (substrate phage display with NGS)

MMP-9, sequence (P14780 94-707): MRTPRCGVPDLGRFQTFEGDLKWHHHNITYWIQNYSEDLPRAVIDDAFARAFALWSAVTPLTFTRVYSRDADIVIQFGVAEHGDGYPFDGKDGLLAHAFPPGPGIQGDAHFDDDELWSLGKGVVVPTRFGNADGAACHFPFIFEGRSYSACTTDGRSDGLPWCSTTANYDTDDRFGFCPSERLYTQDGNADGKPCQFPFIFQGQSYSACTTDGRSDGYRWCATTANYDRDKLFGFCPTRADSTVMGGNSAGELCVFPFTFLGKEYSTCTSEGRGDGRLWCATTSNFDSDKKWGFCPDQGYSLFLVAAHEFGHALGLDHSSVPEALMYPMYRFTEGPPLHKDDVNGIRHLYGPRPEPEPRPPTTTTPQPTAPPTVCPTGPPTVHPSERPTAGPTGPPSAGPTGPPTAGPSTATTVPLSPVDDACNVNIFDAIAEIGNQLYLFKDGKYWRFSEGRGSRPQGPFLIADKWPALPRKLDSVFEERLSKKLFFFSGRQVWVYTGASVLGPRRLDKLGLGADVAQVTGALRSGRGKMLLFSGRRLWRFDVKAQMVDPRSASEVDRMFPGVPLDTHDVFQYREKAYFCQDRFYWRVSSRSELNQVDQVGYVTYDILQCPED

Substance	Kobs [1, 4] [M⁻¹ s⁻¹]	Kobs [2, 5] [M⁻¹ s⁻¹]	Kobs [1, 7] [M⁻¹ s⁻¹]	Kobs [2, 8] [M⁻¹ s⁻¹]	relative probability (RP) [3, 6]	relative probability (RP) [3, 9]
RKVRN-WTASG			201.585	0		17.7682
SLVRF-LTASG	12792.1	12792.1			15.0438	
NRLSH-WTASG			912.511	12792.1		23.1226
SKPNF-LTASG	3741.87	5889.62			15.743	
GNVRS-LITAS	2476.66	12792.1			12.3051	
GEPNY-LKTAS			1239.69	2687.73		17.2533
GKVEY-LVTAS			0	0		5.301
RQWYG-ITASG	4922.1	142.481			0.0533	
RPPSS-LTASG			9740.44	10866.7		35.4913
YDSRG-LTASG	231.616	1239.69			6.164	
STVFH-MTASG			1763.55	0		5.168
TFWGA-LTASG	0	10866.7			26.3441	
SGPLG-LSGTA	12792.1	12792.1			35.3536	
SGYYG-LRATA			12792.1	874.197		0.142
HRPRS-LTASG	12792.1	12792.1			33.3704	
GEFRS-MRTAS			0	1763.55		5.389
TNPIM-LTASG			1071.29	418.952		15.4441
KAVNH-LTASG	0	1763.55			12.8499	
YKPAG-LTASG			12792.1	10866.7		36.0156
ANYSN-ITASG			0	4470.66		14.6847
RTAHN-LTASG	5667.28	12792.1			23.7113	
KTWRN-LTASG	0	690.17			6.7583	
LLYAS-LTASG			990.764	12792.1		26.9916
EMYGN-MTASG			451.441	5667.28		13.8836

The next lines start with results.

Kobs [1, 4] [M⁻¹ s⁻¹]	Kobs [2, 5] [M⁻¹ s⁻¹]	Kobs [1, 7] [M⁻¹ s⁻¹]	Kobs [2, 8] [M⁻¹ s⁻¹]	Substance	relative probability (RP) [3, 6]	relative probability (RP) [3, 9]
951.362	585.336			GEVFS-LTASG	9.631	
1660.66	3253.29			GQARG-LQTAS	25.9476	
12792.1	12792.1			TVPYQ-LTASG	25.4279	
3964.21	3165.09			ARSYN-LTASG	6.093	
		142.481	142.481	SGWAP-LLRTA		23.9342
		0	0	GRVEL-LYTAS		0
2687.73	799.117			VPPRV-LTASG	13.9079	
		619.843	27.918	SGSLA-LQSTA		6.019
		27.918	142.481	ENFLH-LTASG		0.8093
		7386.83	9740.44	SGPSM-LTATA		33.0235
		1660.66	386.839	LPYFS-MTASG		0.06612
355.093	4205.91			RQLAA-ITASG	28.8382	
